We go through seven molecules from patent US5744355A, “cDNA cloning and expression of human liver estrogen sulfotransferase” (Mayo Foundation for Medical Education and Research, priority 1995, dated 1998).

For data set [1], the target named is T1, protein encoded by the human liver EST cDNA (Homo sapiens, UniProt P49888).
T1 construct: made in house; host or cells: COS-1 (ATCC CRL-1650) cells transiently transfected with EST-p91023(B); 100,000 x g supernatant used
T1 sequence (P49888 1-294): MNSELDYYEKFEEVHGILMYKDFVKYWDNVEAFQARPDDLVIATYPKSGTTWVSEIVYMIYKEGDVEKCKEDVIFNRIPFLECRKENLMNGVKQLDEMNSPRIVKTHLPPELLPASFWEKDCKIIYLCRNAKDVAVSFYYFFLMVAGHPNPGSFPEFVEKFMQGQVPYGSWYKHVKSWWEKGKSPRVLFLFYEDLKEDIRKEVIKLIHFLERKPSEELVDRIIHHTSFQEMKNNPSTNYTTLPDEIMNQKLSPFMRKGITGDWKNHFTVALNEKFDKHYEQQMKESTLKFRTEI
The data set is described as follows: ST enzymatic activity after transfection of COS-1 cells with human liver EST cDNA in p91023(B). The format is biochemical. To be noted: for sulfation catalyzed by the protein encoded by the human liver EST cDNA: approximate values, transfected COS-1 cells; for ST enzymatic activity, EST cDNA, Average: average of two experiments; for ST enzymatic activity, EST cDNA, Average / ST enzymatic activity, EST cDNA, Expt. 1: HSS of transfected COS-1 cells. The procedure:
COS-1 (ATCC No. CRL-1650) cells were transfected with an EST cDNA expression construct in the eukaryotic expression vector p91023(B) as well as with vector alone using the DEAE-dextran method (H. Luthman et al., Nucleic Acids Res., 11, 1295-1308 (1983)). Specifically, the COS-1 cells were plated in 100-mm dishes in Dulbecco's modified Eagle's medium (DMEM) supplemented with 10% fetal calf serum (FCS) at a density of 1.2×10^6 cells/dish, and were grown overnight. The EST-p91023(B)construct, a control human liver DHEA ST-p91023(B) construct, p91023(B) with no insert, or only buffer were mixed with DEAE-dextran and DMEM and were added to the cell culture dishes (J. H. McCutchan et al., J. Natl. Cancer Inst., 41, 351 (1968); R. J. Kaufman et al., Mol. Cell. Biol., 2, 946 (1989)). After 1 hour, the DEAE-dextran solution was replaced for 2 minutes by DMEM that contained 10% dimethylsulfoxide (DMSO), followed by 0.1 mM chloroquine in DMEM for 2 hours (H. Luthman et al., Nucleic Acids Res., 11, 1295 (1983)). Cells were then grown for 48 hours in DMEM supplemented with 10% FCS. After harvesting, cell pellets were washed with 5 ml of phosphate buffered saline (PBS) and were homogenized for 30 seconds in 2 ml of 5 mM potassium phosphate buffer, pH 6.5. The homogenates were centrifuged at 12,000-15,000×g for 15 minutes at 4° C., and supernatants were collected and centrifuged at 100,000×g for 1 hour at 4° C. Five μl aliquots of the 100,000×g "high-speed supernatants" (HSS) were assayed for ST enzymatic activities (Example IV).
ST activities were measured in preparations of transfected COS- 1 cells using DHEA, 4- nitrophenol and dopamine, model substrates for DHEA ST, TS PST and TL PST, respectively (Example IV). The assays were performed under optimal conditions for the measurement of these three enzyme activities in human liver preparations (N. R. C. Campbell et al., Biochem. Pharmacol., 36, 1435-1446 (1987); J. S. Hernandez et al., Drug Metab. Dispos., 20, 413-422 (1992), both of which are incorporated herein by reference). The sulfation of estrone was measured using optimal conditions for the assay of EST activity of human EST enzyme (Example III(c)).
Estrone was used as the substrate to determine optimal assay conditions and, subsequently, to characterize the properties of human EST enzyme. […] Mg^2+ is known to increase the activities of several ST enzymes (J. S. Hernandez et al., Drug Metab. Dispos., 20, 413-422 (1992); I. A. Aksoy et al., Druc, Metab. Dispos., 21, 268-276 (1993)). […]

Data set [2] deals with T2, recombinant human liver DHEA ST enzyme (Homo sapiens, UniProt Q06520).
T2 sequence (Q06520 1-285): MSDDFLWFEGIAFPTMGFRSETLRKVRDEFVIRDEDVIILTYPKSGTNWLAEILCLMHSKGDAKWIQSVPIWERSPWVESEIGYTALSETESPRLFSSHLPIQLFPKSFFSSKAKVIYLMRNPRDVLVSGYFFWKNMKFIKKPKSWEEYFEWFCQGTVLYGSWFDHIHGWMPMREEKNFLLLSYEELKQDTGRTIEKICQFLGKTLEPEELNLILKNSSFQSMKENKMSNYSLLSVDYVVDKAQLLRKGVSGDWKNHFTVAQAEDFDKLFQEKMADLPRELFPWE
Description: Substrate kinetics (apparent Km), COS-1 expressed DHEA ST enzyme. The class given is biochemical. Also on record: made in house; host or cells: COS-1 cells transiently transfected with human liver DHEA ST-p91023(B); 100,000 x g supernatant used. To be noted: compound as sulfate acceptor substrate; estrone 0.2 to 100 μM, DHEA 0.06 to 10 μM. The protocol: (§1) Total reaction assay volume was about 200 μl . […] The tubes were vortexed after each addition.
(§2) Substrate kinetic studies designed to estimate apparent Km values were performed utilizing the EST and DHEA ST activity assays described above and in Example III. Since human liver EST enzyme and DHEA ST enzyme can both catalyze the sulfation of steroids, these studies presented an opportunity to determine apparent Km values of the two enzymes with estrone and DHEA as substrates. Both enzyme preparations were tested with a range of estrone and DHEA concentrations (Table III).
(§3) Apparent Km values were calculated by the method of Wilkinson (Biochem. J., 80, 324-332 (1961)) with a computer program written by Cleland (Nature, 198, 463-465 (1963)).

Data set [3] has as its target T3, recombinant human liver EST enzyme (Homo sapiens, UniProt P49888).
T3 sequence (P49888 1-294): T1 sequence (P49888 1-294)
Description: Substrate kinetics (apparent Km), COS-1 expressed EST enzyme. Also noted: made in house; host or cells: COS-1 (ATCC CRL-1650) cells transiently transfected with EST-p91023(B); 100,000 x g supernatant used. As to conditions: compound as sulfate acceptor substrate; estrone 0.01 to 0.1 μM, DHEA 0.0125 to 32 μM. The class given is biochemical. The protocol:
as §1, §2, §3

Data set [4] deals with T4, human EST enzyme (Homo sapiens, UniProt P49888).
T4 sequence (P49888 1-294): T1 sequence (P49888 1-294)
The data set is described as follows: Preferred substrate and optimal assay conditions for recombinant human EST enzyme. The format is biochemical.
Description: Estrone was used as the substrate to determine optimal assay conditions and, subsequently, to characterize the properties of human EST enzyme. […] The optimal pH for the measurement of estrone ST activity with the expressed protein was approximately 6.5 in the presence of 8.2 mM potassium phosphate buffer. […] EST activity assays were subsequently performed on crude extracts from recombinant COS-1 cells expressing human EST enzyme using the optimal assay conditions thus identified: at a reaction pH of 6.5 in the presence of 1.25 mM MgCl2 with 0.05 μM estrone as the sulfate acceptor substrate, in 8.2 mM potassium phosphate buffer.

Data set [5] has as its target T2, recombinant human liver DHEA ST enzyme. As to conditions: 75 mM NaCl; substrate DHEA.
Description: The previously described EST and DHEA ST activity assays were used to measure ST activities of recombinant human liver EST enzyme and DHEA ST enzyme, respectively, wherein NaCl concentration in the reaction mixture was made 0.6 to 150 mM by the addition of 5 μL of a concentrated aqueous NaCl solution prior to incubation.
The target of data set [6] is T3, recombinant human liver EST enzyme. As to conditions: 150 mM NaCl; substrate estrone. From the text: Estrone was used as the substrate to determine optimal assay conditions and, subsequently, to characterize the properties of human EST enzyme. […] Mg^2+ is known to increase the activities of several ST enzymes (J. S. Hernandez et al., Drug Metab. Dispos., 20, 413-422 (1992); I. A. Aksoy et al., Druc, Metab. Dispos., 21, 268-276 (1993)).

Data set [7] is described as follows: Thermal inactivation of ST activity. The format is physicochemical, human. To be noted: 15 minutes preincubation; mean ±SEM. The protocol: Aliquots of recombinant COS-1 cell extracts were incubated at 31°, 33°, 35°, 37°, 39°, 41°, 43° or 45° C. for 15 minutes prior to assay to determine thermal inactivation parameters. […] For the thermal inactivation experiment, aliquots of HSS from COS-1 cells transfected with EST cDNA or DHEA ST cDNA were diluted 1:2 (v/v) with 5 mM potassium phosphate buffer, pH 6.5, preincubated at various temperatures for 15 minutes and was then placed on ice. An aliquot of the same preparation was kept on ice as a control. Each aliquot was then diluted further for assay of the ST activity being measured. Values for controls were determined at each temperature studied. Data obtained during thermal inactivation and DCNP inhibition studies were analyzed with the GraphPAD InPlot curve-fitting program (GraphPAD InPlot Software, San Diego, Calif.).

[8] abbreviates: first EST cDNA column, estrone 0.05 μM, DHEA 5 μM, 4-nitrophenol 4 μM, dopamine 60 μM, 1 unit = 1 nmol sulfated product per hour at 37° C.
The mark [9] stands for this setting: second EST cDNA column, same substrate concentrations.

In the case of `O=[N+]([O-])c1ccc(O)cc1` [4-Nitrophenol, 4-nitrophenol], in data set [1], the “sulfation catalyzed by the protein encoded by the human liver EST cDNA” value (“sulfation catalyzed” below) is ~ 5 units/mg protein and the “ST enzymatic activity, EST cDNA, Average” value amounted to 5.2 units/mg protein. Also, in data set [1] (setting [8]), the “ST enzymatic activity, EST cDNA, Expt. 1” value is 3.4 units/mg protein. Further, the “ST enzymatic activity, EST cDNA, Expt. 1” value in data set [1] (setting [9]) was determined as 6.9 units/mg protein.
By Km is commonly meant the substrate concentration at which the rate is half of its maximum. `C[C@]12CC[C@H](O)CC1=CC[C@@H]1[C@@H]2CC[C@]2(C)C(=O)CC[C@@H]12` [DHEA, dehydroepiandrosterone]: the Km in data set [2] worked out at 2.6 µM; in data set [3] it was 0.85 µM. In data set [1], the “sulfation catalyzed” value is ~ 2 units/mg protein. The “ST enzymatic activity, EST cDNA, Average” value in data set [1] came out at 2.3 units/mg protein. For the same molecule, the “ST enzymatic activity, EST cDNA, Expt. 1” value is recorded as 1.3 units/mg protein in data set [1] (setting [8]) and 3.3 units/mg protein in data set [1] (setting [9]).
As to `NCCc1ccc(O)c(O)c1` [Dopamine, dopamine], in data set [1], the “sulfation catalyzed” value is on record as “not” and the “ST enzymatic activity, EST cDNA, Average” value amounted to 0.0 units/mg protein. Also, in data set [1] (setting [8]), the “ST enzymatic activity, EST cDNA, Expt. 1” value came to 0.0 units/mg protein. Moreover, in data set [1] (setting [9]), the “ST enzymatic activity, EST cDNA, Expt. 1” value is 0.0 units/mg protein.
Regarding `C[C@]12CC[C@@H]3c4ccc(O)cc4CC[C@H]3[C@@H]1CCC2=O` [Estrone], the Km in data set [2] came out at 3.1 µM; in data set [3], 0.17 µM. Further, the “sulfotransferase activity relative to other sulfate acceptor substrates” value in data set [4] (compared with estradiol-17β, ethinyl estradiol, or DHEA) is on record as “greater sulfotransferase activity”. For the same molecule, the “estrone concentration giving maximal enzymatic activity” value in data set [4] (range 0.01 to 0.10 μM tested) came out at 0.05 µM. Besides, the “sulfation catalyzed” value in data set [1] was ~ 9 units/mg protein. Further, the “ST enzymatic activity, EST cDNA, Average” value in data set [1] is listed as 8.8 units/mg protein. In addition, the “ST enzymatic activity, EST cDNA, Expt. 1” value is 6.0 units/mg protein in data set [1] (setting [8]) and 11.5 units/mg protein in data set [1] (setting [9]).
As to `[Cl-].[Cl-].[Mg+2]` [Mg^2+, MgCl2], the “increase of EST activity” value in data set [4] (1.25 mM Mg2+, estrone as substrate) is reported as 20%.
Take `[Cl-].[Na+]` [NaCl]: the “peak activation of DHEA ST activity” value in data set [5] was determined as 62%. In data set [6], the “increase of EST activity” value was determined as 86%.

B1: EST enzyme: recombinant human liver estrogen sulfotransferase (SEQ ID NO:2) expressed in COS-1 cells (protein)
chain: T1 sequence (P49888 1-294)
Consider B1, for which the “temperature at which 50% inactivation of activity occurred” value in data set [7] was 38.2±0.12 °C.
